Results as given in US12350267B2, “Bile acid recycling inhibitors for treatment of pediatric cholestatic liver diseases” (SHIRE HUMAN GENETIC THERAPIES, INC., priority 2011, dated 2025).
Each block holds one compound with its values, some of them ahead of it.

Key:
[1] = system: fecal bile acid excretion and plasma bile acid concentrations; experiment: ZDF rat study of 264W94: fecal bile acid excretion and plasma bile acid concentrations; assay type: in vivo, Male Zucker diabetic fatty rats (ZDF/GmiCrl-fa/fa); conditions: 2 weeks
Experimental: Animal preparation. Male Zucker diabetic fatty rats (ZDF/GmiCrl-fa/fa) were purchased from Charles River (Raleigh, NC) and housed under controlled conditions (12:12 light-dark cycle, 24° C. and 50% relative humidity) with free access to rodent food (Purina 5008, Harlan Teklad, Indianapolis, IN). All rats arrived at seven weeks of age (±3 days). After a one-week acclimation period, rats were anesthetized with isoflurane (Abbott Laboratories, IL) and tail-vein blood samples were collected at 9 am without fasting. Blood glucose levels were measured using a glucometer (Bayer, Leverkusen, Germany). In order to ensure balanced treatment groups, ZDF rats were assigned to six treatment groups based upon baseline glucose: vehicle (0.5% HPMC, 0.1% Tween80) and five doses of 264W94 (0.001, 0.01, 0.1, 1, 10 mg/kg). All treatments were given via oral gavage twice a day and animals were followed for two weeks with blood samples collected from tail vein at the end of each week at 9 am without fasting. Fecal samples were collected for 24 hours during the second week of treatment.
Measurement of clinical chemistry parameters. Non-esterified fatty acids (NEFA), bile acids, and bile acids in fecal extraction were measured using the Olympus AU640 clinical chemistry analyzer (Beckman Coulter, Irving, TX).

[2] = system: Postprandial Total Serum Bile Acids; experiment: Duration of action of LUM001 on dog serum bile acids, Method 2 (dosing before feeding); assay type: in vivo, Beagle dogs; conditions: dogs n=9, 0.05 mg/kg (2nd dose column), dosing time 0 hr, feeding time 2 hr
Experimental: (§1) Dosage preparation and administration: LUM001 was dissolved in water at concentrations that required the administration of 0.2 ml/kg of solution. Solutions were placed into gelatin capsules, Torpac Inc., size 13 Batch 594, East Hanover NJ, and administered orally.
(§2) Dogs: Male beagle dogs were obtained from Covance Research Products, Cumberland VA or Marshall Farms USA, Inc., North Rose NY. A total of 20 dogs, 1 to 5 years old, 6.8 to 15.6 kg body weight, were used in these experiments. The dogs were conditioned to a 12 hour light/dark cycle and maintained on a feeding restriction of 1 hour per day access to food (Richman Standard Certified Canine Diet #5007, PMI Nutrition, Inc., St Louis MO) from 7 to 8 AM. They were trained to eat a special meal promptly within 20 minutes when presented (1 can. 397 g, Evanger's 100% Beef for Dogs, Evanger's Dog and Cat Food Co., Inc., Wheeling IL, mixed with 50 g of sharp cheddar cheese).
Serum Total Bile Acid (SBA) Measurement: SBA was measured by an enzymatic assay. SBA values are expressed as μg of total bile acids/ml of serum.
Experiments to Measure the Duration of Action of LUM001: In dogs a single experimental meal produces a postprandial rise in SBA that is elevated to a peak at 1 hour after feeding and constant for an additional 3 hours. Previous experiments (2) indicate that LUM001 remains active for more than 4.5 hours. […]

[3] = system: serum bile acids and fecal bile acids; experiment: Phase 1 ascending multiple oral doses of LUM001 in healthy subjects: serum and fecal bile acids; assay type: in vivo; conditions: healthy adult subjects; multiple oral doses qAM, 28 days
Experimental: A Randomized, Double-Blind, Placebo Controlled, Safety, Tolerability, Pharmacokinetic, and Pharmacodynamic Study of Ascending Multiple Oral Doses of LUM001 in Healthy Subjects
This Phase 1 study was a randomized, double-blind, placebo-controlled study of ascending multiple oral doses of LUM001 in healthy, adult subjects. This study was conducted at a single center. There were 13 LUM001 dosing panels: 10, 20, 60, 100, and 20 mg every morning (qAM) (2) (i.e., the regimen was tested a second time in the study), 5 mg every evening (qPM), 0.5, 1, 2.5, 5, 2.5 (2), 5 (2), and 0.5 to 5 mg qAM dose titration. Most of the dosing panels included subjects treated with matching placebo. […]
SBA were analyzed as part of the routine clinical analysis of the serum samples collected at each time point.
Fecal Bile Acid Analysis: Fecal samples were collected for all panels except the dose-titration panel, 2.5 (2) and 5 mg (2), on Days 9 through 14 and 23 through 28 (data shown in FIG. 4). Twenty-four hour FBA excretions were quantified by Pharmacia for Days 9 through 14 and 23 through 28. […] The weight of each 24-hour fecal collection was recorded on the CRFs. […]
An aliquot for each 24-hour fecal sample collected on Days 23 through 28 was combined, homogenized, and analyzed for bile acid species concentrations by ANAPHARM. […]

[4] = system: Postprandial Total Serum Bile Acids; conditions: dog; previous experiments (2); cited from earlier work
[5] = system: Postprandial Total Serum Bile Acids; experiment: Time to onset of activity of LUM001 on postprandial serum bile acids in dogs; assay type: in vivo, Beagle dogs; conditions: dog; dose increased above ED50 level to 1 mg/kg
Experimental: Animal Study on the Duration of Action and Time to Onset of ASBTI Activity of a Single Oral Dose of LUM001 on Postprandial Total Serum Bile Acids in Beagle Dogs
Test Compound: LUM001—Form I
as §1, §2
Serum Total Bile Acid (SBA) Measurement: SBA was measured by an enzymatic assay. SBA values are expressed as μg of total bile acids/ml of serum. […]

[6] = Pharmacokinetics of LUM001 in pediatric subjects (study NB-00-02-014); assay type: in vivo; conditions: measured on day eight
Experimental: LUM001 has been administered to forty patients under the age of 18 years old. […] The drug was administered once-a-day (QD) in the morning for fourteen days. […] These doses are similar to those using to treat children with cholestatic diseases.

plasma bile acid levels = experiment: Plasma bile acid levels of ZDF rats after ascending doses of SC-435 and LUM002; assay type: in vivo, Male ZDF rats; conditions: ZDF rats n=4; oral gavage twice a day for 2 weeks; all doses (SC-435 1, 10 or 30 mg/kg; LUM002 0.3, 1, 3, 10 or 30 mg/kg)
Experimental: (§3) FIG. 2. Plasma bile acid levels of ZDF rats after administration of ascending doses of SC-435 and LUM002. Male ZDF rats (n=4) were administered vehicle, SC-435 (1, 10 or 30 mg/kg) or LUM002 (0.3, 1, 3, 10 or 30 mg/kg) by oral gavage twice a day for 2 weeks. Plasma bile acid levels were determined at the end of the second week. Data are expressed as mean values±SEM.
as §3, with “Plasma” for “FIG. 2. Plasma”, “week. […]” for “week.”

[7] = ZDF rats, oral gavage twice a day

Structure (SMILES): CCCC[C@]1(CC)CS(=O)(=O)c2cc(OC)c(OC)cc2[C@@H](c2ccccc2)N1 [Compound 264W94]
- Fecal bile acid concentrations elevated compared to vehicle treated rats ([1]; 0.001-10 mg/kg oral gavage twice a day, maximum elevation (up to)): up to 6.5 fold
- Plasma bile acid concentrations ([1]; ZDF rats, 0.001-10 mg/kg oral gavage twice a day): decreased dose-dependently
- ED50 for elevation of fecal bile acid concentrations [1, 7]: 0.17 mg/kg
- Fecal NEFA [1, 7]: slightly increased

- Average serum drug exposure ([6]; Subject 0510, 5.0 mg QD (168.4 μg/kg)): 0,0 ng/ml
- Systemic exposure / absorption by the children ([6]; patients under 18, QD in the morning): minimally absorbed
Structure (SMILES): CCCCC1(CCCC)CS(=O)(=O)c2ccc(N(C)C)cc2[C@@H](c2ccc(OCc3ccc(C[N+]45CCN(CC4)CC5)cc3)cc2)[C@H]1O [LUM001]
- Serum Bile Acid, Mean [2]: 1.7 µg/mL
- Fecal bile acids [3]: significant increase
- Serum bile acids [3]: significant reduction
- Time LUM001 remains active (previous experiments) [4]: more than 4.5 hours
- Onset time to significant SBA lowering versus ED50 dose [5]: did not shorten

Structure (SMILES): CCCC[C@]1(CC)CS(=O)(=O)c2ccc(N(C)C)cc2[C@@H](c2cccc(NC(=O)N[C@@H]3O[C@H](COS(=O)(=O)[O-])[C@@H](O)[C@H](OCc4ccccc4)[C@H]3O)c2)[C@H]1O.[K+] [LUM002]
- Plasma bile acid levels (plasma bile acid levels): decreased

Structure (SMILES): CCCCC1(CCCC)CS(=O)(=O)c2ccc(N(C)C)cc2[C@@H](c2ccc(OCCCC[N+]34CCN(CC3)CC4)cc2)[C@H]1O.CS(=O)(=O)[O-] [SC-435, 1-[4-[4-[(4R,5R)-3,3-dibutyl-7-(dimethylamino)-2,3,4,5-tetrahydro-4-hydroxy-1,1-dioxido-1-benzothiepin-5-yl]phenoxy]butyl]4-aza-1-azoniabicyclo[2.2.2]octane methanesulfonate salt, reference compound]
- Plasma bile acid levels (plasma bile acid levels): decreased
